Data: patent publication US10688200B2, “Urea-based prostate specific membrane antigen (PSMA) inhibitors for imaging and therapy” (Five Eleven Pharma Inc., priority 2015, dated 2020)

How the values were obtained:
[1] = molecular target: T1, PSMA (Homo sapiens, UniProt Q04609); test: In vitro binding signals of 68Ga labeled ligands in LNCaP tumor homogenates; conditions: Ga-68 radiolabeled ligands; for Nonspecific binding (NSB): with 1a (PSMA11) 10 μM
T1 construct: 100 μL of freshly harvested PSMA cells; endogenous in cells; host or cells: 'PSMA cells' in the method
T1 sequence (Q04609 whole entry): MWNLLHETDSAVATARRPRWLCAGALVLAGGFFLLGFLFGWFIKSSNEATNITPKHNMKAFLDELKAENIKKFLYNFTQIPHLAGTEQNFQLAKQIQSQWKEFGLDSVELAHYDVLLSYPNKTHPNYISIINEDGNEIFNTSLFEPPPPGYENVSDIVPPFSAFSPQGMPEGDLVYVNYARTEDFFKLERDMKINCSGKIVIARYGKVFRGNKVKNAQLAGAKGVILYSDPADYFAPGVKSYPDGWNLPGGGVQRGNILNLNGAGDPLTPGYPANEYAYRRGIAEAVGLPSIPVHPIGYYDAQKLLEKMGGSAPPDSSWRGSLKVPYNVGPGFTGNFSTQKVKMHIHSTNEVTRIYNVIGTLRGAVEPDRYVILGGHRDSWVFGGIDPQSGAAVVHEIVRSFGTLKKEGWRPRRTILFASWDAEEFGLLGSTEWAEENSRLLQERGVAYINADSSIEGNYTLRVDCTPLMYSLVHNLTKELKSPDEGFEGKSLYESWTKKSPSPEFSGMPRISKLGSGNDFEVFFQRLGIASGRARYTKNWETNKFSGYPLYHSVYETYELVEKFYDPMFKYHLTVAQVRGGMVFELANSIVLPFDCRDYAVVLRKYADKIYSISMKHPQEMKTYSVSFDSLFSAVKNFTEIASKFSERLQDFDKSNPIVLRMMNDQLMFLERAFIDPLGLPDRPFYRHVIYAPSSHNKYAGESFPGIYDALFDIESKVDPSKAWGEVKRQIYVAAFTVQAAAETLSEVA

[2] = system: PSMA expressing LNCaP cells; test: Cell uptake comparisons in LNCaP cells (FIG. 1); format: cell-based, human; conditions: 1 hr at 37° C.
Protocol: Cell uptake studies were performed using PSMA expressing LNCaP cells. Cells were grown in 6 well plates for 2 days. After incubation with ^68Ga-labeled ligands for 1 hr at 37° C., media were removed. After washing twice with 3 mL PBS buffer, cells were lysed with 0.1 N NaOH. Lysed cells were wiped with filter paper and radioactivity in filter paper was measured with a gamma counter.
The LNCaP cells over express PSMA receptor binding sites, the level of binding, % uptake/well, was an indicator of PSMA binding, the higher the better. [^68Ga]1a, a known PSMA imaging agent (PSMA-11), was used as a control.

[3] = Biodistribution of radiotracers in normal mice; format: in vivo, mouse; conditions: normal male mice
Procedure, shortened: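 Male CD-1 mice received 35 μCi [^68Ga] radiotracer (0.2 nmole ligand) by tail vein. Four mice per time point sacrificed at 2, 30, 60 and 120 min p.i.; organs and blood weighed and gamma counted. %ID/g calculated against a standard dilution of the dose, decay-corrected.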

[4] = system: PSMA; test: In vitro autoradiography of LNCaP tumor and mouse kidney sections; format: binding; conditions: incubation with 2-PMPA
Protocol: LNCaP tumor and mouse kidneys were cut at 20 μm on a cryostat, thaw-mounted onto slides. Slides are incubated with radiotracers (3 μCi/ml) in PBS for 30 min and washed with PBS twice for 3 min each. After drying, the slides put into a plate for exposure for 30 min. Images were acquired with Typhoon FLA 7000 (GE Healthcare).
To validate the PSMA binding, in vitro autoradiography studies using LNCaP tumor and mouse kidney sections were carried out.
FIGS. 2A-2K show in vitro autoradiography of LNCaP tumor (left side) and mouse kidney sections (right side). […] These new PSMA target compounds, display high uptake in the sections. [^68Ga]1a (PSMA-11) was used as a control.

In the case of O=C(O)CC[C@H](NC(=O)N[C@@H](CCCCNC(=O)CCCCCNC(=O)CCc1ccc2c(n1)C[N+]13CC[N+]45CC(=O)[O][68Ga-3]14([O]C(=O)C3)([O]2)[O]c1ccc(CCC(=O)NCCCCCC(=O)NCCCC[C@H](NC(=O)N[C@@H](CCC(=O)O)C(=O)O)C(=O)O)nc1C5)C(=O)O)C(=O)O (some centres unmarked) [[^68Ga]3], the “Specific binding (SB) SB = TB − NSB” value [1] was “lower specific binding”, the “Nonspecific binding (NSB)” value [1] was “high nonspecific binding” and the “Cell uptake (% uptake/well), in words” value [2] was “low cell uptakes”. For the same compound, the “Biodistribution: Blood” value ([3]; 2 min) was 8.94 ± 1.57 % dose/g, the “Biodistribution: Bone” value ([3]; 2 min) was 3.53 ± 0.96 % dose/g and the “Biodistribution: Brain” value ([3]; 2 min) was 0.33 ± 0.06 % dose/g. The “Biodistribution: Heart” value ([3]; 2 min) was 4.34 ± 1.15 % dose/g, the “Biodistribution: Kidney” value ([3]; 2 min) was 56.2 ± 6.53 % dose/g and the “Biodistribution: Liver” value ([3]; 2 min) was 3.42 ± 0.11 % dose/g. The “Biodistribution: Lung” value ([3]; 2 min) was 7.49 ± 2.71 % dose/g, the “Biodistribution: Muscle” value ([3]; 2 min) was 2.02 ± 0.74 % dose/g and the “Biodistribution: Pancreas” value ([3]; 2 min) was 2.89 ± 0.61 % dose/g. For the same compound, the “Biodistribution: Skin” value ([3]; 2 min) was 2.63 ± 0.48 % dose/g, the “Biodistribution: Spleen” value ([3]; 2 min) was 5.14 ± 1.49 % dose/g and the “Biodistribution: Blood” value ([3]; 30 min) was 3.19 ± 0.72 % dose/g. The “Biodistribution: Bone” value ([3]; 30 min) was 1.70 ± 0.20 % dose/g, the “Biodistribution: Brain” value ([3]; 30 min) was 0.09 ± 0.01 % dose/g and the “Biodistribution: Heart” value ([3]; 30 min) was 0.93 ± 0.22 % dose/g. The “Biodistribution: Kidney” value ([3]; 30 min) was 94.4 ± 13.7 % dose/g, the “Biodistribution: Liver” value ([3]; 30 min) was 1.71 ± 0.05 % dose/g and the “Biodistribution: Lung” value ([3]; 30 min) was 1.38 ± 0.17 % dose/g. The “Biodistribution: Muscle” value ([3]; 30 min) was 1.53 ± 0.68 % dose/g, the “Biodistribution: Pancreas” value ([3]; 30 min) was 1.36 ± 0.32 % dose/g and the “Biodistribution: Skin” value ([3]; 30 min) was 1.48 ± 0.34 % dose/g. The “Biodistribution: Spleen” value ([3]; 30 min) was 4.35 ± 0.37 % dose/g, the “Biodistribution: Blood” value ([3]; 60 min) was 1.52 ± 0.44 % dose/g and the “Biodistribution: Bone” value ([3]; 60 min) was 2.34 ± 1.08 % dose/g. The “Biodistribution: Brain” value ([3]; 60 min) was 0.06 ± 0.04 % dose/g, the “Biodistribution: Heart” value ([3]; 60 min) was 0.82 ± 0.22 % dose/g and the “Biodistribution: Kidney” value ([3]; 60 min) was 61.3 ± 5.97 % dose/g. For the same compound, the “Biodistribution: Liver” value ([3]; 60 min) was 1.81 ± 0.14 % dose/g, the “Biodistribution: Lung” value ([3]; 60 min) was 1.29 ± 0.31 % dose/g and the “Biodistribution: Muscle” value ([3]; 60 min) was 1.01 ± 0.29 % dose/g. For the same compound, the “Biodistribution: Pancreas” value ([3]; 60 min) was 1.34 ± 0.45 % dose/g, the “Biodistribution: Skin” value ([3]; 60 min) was 2.35 ± 0.34 % dose/g and the “Biodistribution: Spleen” value ([3]; 60 min) was 1.75 ± 0.17 % dose/g. For the same compound, the “Biodistribution: Blood” value ([3]; 120 min) was 1.00 ± 0.30 % dose/g, the “Biodistribution: Bone” value ([3]; 120 min) was 3.56 ± 1.08 % dose/g and the “Biodistribution: Brain” value ([3]; 120 min) was 0.05 ± 0.02 % dose/g. The “Biodistribution: Heart” value ([3]; 120 min) was 0.84 ± 0.20 % dose/g, the “Biodistribution: Kidney” value ([3]; 120 min) was 30.3 ± 8.87 % dose/g and the “Biodistribution: Liver” value ([3]; 120 min) was 2.00 ± 0.20 % dose/g. The “Biodistribution: Lung” value ([3]; 120 min) was 0.97 ± 0.12 % dose/g, the “Biodistribution: Muscle” value ([3]; 120 min) was 1.13 ± 0.50 % dose/g and the “Biodistribution: Pancreas” value ([3]; 120 min) was 1.21 ± 0.19 % dose/g. The “Biodistribution: Skin” value ([3]; 120 min) was 1.22 ± 0.20 % dose/g and the “Biodistribution: Spleen” value ([3]; 120 min) was 1.71 ± 0.56 % dose/g.
In the case of O=C(O)CCc1ccc2c(n1)C[N+]13CC[N+]45CC(=O)[O][68Ga-3]14([O]C(=O)C3)([O]2)[O]c1ccc(CCC(=O)NCCCCCC(=O)NCCCC[C@H](NC(=O)N[C@@H](CCC(=O)O)C(=O)O)C(=O)O)nc1C5 (some centres unmarked) [[^68Ga]2], the “Specific binding (SB) SB = TB − NSB” value [1] was “lower specific binding”, the “Nonspecific binding (NSB)” value [1] was “high nonspecific binding” and the “Cell uptake (% uptake/well), in words” value [2] was “low cell uptakes”. For the same compound, the “Biodistribution: Blood” value ([3]; 2 min) was 8.92 ± 0.75 % dose/g, the “Biodistribution: Bone” value ([3]; 2 min) was 2.18 ± 0.08 % dose/g and the “Biodistribution: Brain” value ([3]; 2 min) was 0.24 ± 0.02 % dose/g. The “Biodistribution: Heart” value ([3]; 2 min) was 3.40 ± 0.45 % dose/g, the “Biodistribution: Kidney” value ([3]; 2 min) was 56.4 ± 8.05 % dose/g and the “Biodistribution: Liver” value ([3]; 2 min) was 2.01 ± 0.08 % dose/g. The “Biodistribution: Lung” value ([3]; 2 min) was 5.18 ± 0.52 % dose/g, the “Biodistribution: Muscle” value ([3]; 2 min) was 2.00 ± 0.25 % dose/g and the “Biodistribution: Pancreas” value ([3]; 2 min) was 1.85 ± 0.17 % dose/g. The “Biodistribution: Skin” value ([3]; 2 min) was 3.07 ± 0.05 % dose/g, the “Biodistribution: Spleen” value ([3]; 2 min) was 3.57 ± 0.20 % dose/g and the “Biodistribution: Blood” value ([3]; 30 min) was 1.18 ± 0.15 % dose/g. For the same compound, the “Biodistribution: Bone” value ([3]; 30 min) was 0.48 ± 0.02 % dose/g, the “Biodistribution: Brain” value ([3]; 30 min) was 0.05 ± 0.00 % dose/g and the “Biodistribution: Heart” value ([3]; 30 min) was 0.51 ± 0.03 % dose/g. The “Biodistribution: Kidney” value ([3]; 30 min) was 108 ± 8.66 % dose/g, the “Biodistribution: Liver” value ([3]; 30 min) was 0.33 ± 0.01 % dose/g and the “Biodistribution: Lung” value ([3]; 30 min) was 1.07 ± 0.12 % dose/g. For the same compound, the “Biodistribution: Muscle” value ([3]; 30 min) was 0.46 ± 0.03 % dose/g, the “Biodistribution: Pancreas” value ([3]; 30 min) was 0.76 ± 0.12 % dose/g and the “Biodistribution: Skin” value ([3]; 30 min) was 0.88 ± 0.08 % dose/g. For the same compound, the “Biodistribution: Spleen” value ([3]; 30 min) was 1.33 ± 0.08 % dose/g, the “Biodistribution: Blood” value ([3]; 60 min) was 0.89 ± 0.10 % dose/g and the “Biodistribution: Bone” value ([3]; 60 min) was 0.43 ± 0.01 % dose/g. The “Biodistribution: Brain” value ([3]; 60 min) was 0.03 ± 0.00 % dose/g, the “Biodistribution: Heart” value ([3]; 60 min) was 0.33 ± 0.02 % dose/g and the “Biodistribution: Kidney” value ([3]; 60 min) was 67.8 ± 15.57 % dose/g. The “Biodistribution: Liver” value ([3]; 60 min) was 0.25 ± 0.06 % dose/g, the “Biodistribution: Lung” value ([3]; 60 min) was 0.72 ± 0.16 % dose/g and the “Biodistribution: Muscle” value ([3]; 60 min) was 0.24 ± 0.01 % dose/g. The “Biodistribution: Pancreas” value ([3]; 60 min) was 0.44 ± 0.08 % dose/g, the “Biodistribution: Skin” value ([3]; 60 min) was 0.46 ± 0.10 % dose/g and the “Biodistribution: Spleen” value ([3]; 60 min) was 0.84 ± 0.24 % dose/g. For the same compound, the “Biodistribution: Blood” value ([3]; 120 min) was 0.78 ± 0.04 % dose/g, the “Biodistribution: Bone” value ([3]; 120 min) was 0.60 ± 0.03 % dose/g and the “Biodistribution: Brain” value ([3]; 120 min) was 0.03 ± 0.01 % dose/g. The “Biodistribution: Heart” value ([3]; 120 min) was 0.28 ± 0.02 % dose/g, the “Biodistribution: Kidney” value ([3]; 120 min) was 26.9 ± 6.13 % dose/g and the “Biodistribution: Liver” value ([3]; 120 min) was 0.22 ± 0.01 % dose/g. For the same compound, the “Biodistribution: Lung” value ([3]; 120 min) was 0.45 ± 0.01 % dose/g, the “Biodistribution: Muscle” value ([3]; 120 min) was 0.18 ± 0.01 % dose/g and the “Biodistribution: Pancreas” value ([3]; 120 min) was 0.30 ± 0.04 % dose/g. For the same compound, the “Biodistribution: Skin” value ([3]; 120 min) was 0.29 ± 0.03 % dose/g and the “Biodistribution: Spleen” value ([3]; 120 min) was 0.36 ± 0.04 % dose/g.
In the case of “2-(3-mercaptopropyl)pentane-dioic acid [Compound 2-PMPA]”, the “Blocking of radiotracer binding in autoradiography, in words” value [4] was “blocked radiotracers' binding to tumor and kidney”.
